Test results as given in article PMC7970304, “The Effects of Apelin and Elabela Ligands on Apelin Receptor Distinct Signaling Profiles” (Frontiers in Pharmacology, 2021).
No end group written: not given here.

What was measured:
[1] = tested on: pulmonary arterial hypertension (PAH); design: method as in Yang et al., 2017; settings: exogenous peptide; ref Yang et al., 2017; cited from earlier work
APJ [2] = settings: ERK1/2-dependent; ref Perjés et al., 2016; cited from earlier work
Text: Elabela (also known as apela or toddler), which has little sequence homology with Apelin, has recently been identified as the second endogenous APJ ligand. […] Elabela is highly expressed during embryogenesis and in adult kidney. Elabela is also derived from a precursor of 54 amino acids. Its 13 C-terminal amino acids are highly conserved among all spe ...

APJ [3] = settings: cited from earlier work
Text: Elabela (also known as apela or toddler), which has little sequence homology with Apelin, has recently been identified as the second endogenous APJ ligand. […] Elabela is highly expressed during embryogenesis and in adult kidney. Elabela is also derived from a precursor of 54 amino acids.

APJ (Apelin receptor) = target: T1, APJ (Apelin receptor) (Homo sapiens, UniProt P35414); assay: Radioligand competition binding assay, [125I]-apelin-13, HEK-293/APJ membranes; design: APJ membrane preparations were obtained from transiently transfected HEK293 cells; host or cells: HEK293 cells, transiently transfected; membranes prepared
T1 sequence (P35414 1-380): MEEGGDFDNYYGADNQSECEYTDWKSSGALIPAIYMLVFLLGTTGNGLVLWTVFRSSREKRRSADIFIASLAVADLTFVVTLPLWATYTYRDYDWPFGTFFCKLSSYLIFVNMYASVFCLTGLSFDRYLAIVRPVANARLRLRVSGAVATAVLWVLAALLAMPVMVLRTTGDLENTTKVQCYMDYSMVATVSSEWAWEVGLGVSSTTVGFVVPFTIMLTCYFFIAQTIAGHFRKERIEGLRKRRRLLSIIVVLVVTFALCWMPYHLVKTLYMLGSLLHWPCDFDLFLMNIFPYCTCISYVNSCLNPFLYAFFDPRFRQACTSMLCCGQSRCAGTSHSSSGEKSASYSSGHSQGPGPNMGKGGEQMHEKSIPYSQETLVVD
Protocol: APJ membrane preparations were obtained from transiently transfected HEK293 cells. HEK293 cells were cultured in complete DMEM (DMEM plus 10% FBS) for 24 h, until they reached at least 70% confluence. Transfection reagent containing 20 μg of the APJ expression plasmid was added, and the cells were incubated for another 24 h. The cells were then harvested into 25 ml homogenization buffer (HB) [250 mM sucrose and 25 mM HEPES (pH 7.3); adjusted to pH 7.5 at 4°C and then filtered] supplemented with 250 μL phenylmethylsulfonyl fluoride (PMSF), homogenized using an IKA T25 Ultra Turrax (24,000 rpm), and centrifuged at 6,025 rpm for 15 min at 4°C. […]
The binding reaction was stopped by rapid filtration through polyethyleneimine (PEI)-coated GF/B plates using a cell harvester, and the plates were washed three times with ice-cold wash buffer [50 mM HEPES (pH 7.4), 500 mM NaCl, and 0.1% BSA; filtered and stored at 4°C]. The filtration plates were dried at 37°C for 2 h; 50 μL scintillation cocktail (Perkin Elmer, Wellesley, MA, United States), was added to each well; and the radioactivity was measured using a Perkin Elmer 1450 MicroBeta TriLux Microplate Scintillation and Luminescence Counter.
The binding reaction was stopped, the plates were washed and dried, the scintillation cocktail was added, and the radioactivity was measured as described above.

APJ [4] = tested on: APJ; design: method as in Nyimanu et al., 2019; settings: ref Nyimanu et al., 2019; cited from earlier work
μ opioid receptor (MOR) = settings: ref Markham, 2020; cited from earlier work
Text: GPCR ligands were traditionally thought to act equally on all the downstream signaling pathways of the GPCRs, including the multiple signaling pathways mediated by G proteins and β-arrestin.

Apelin receptor (APJ) [5] = target: Apelin receptor (APJ) (UniProt P35414); assay: radioligand binding; competition binding: HEK-293/APJ membrane preparation 20 μg/well, 0.1 nM [125I]-apelin-13, test peptides in 5-fold dilutions starting at 10 µM; 50 mM HEPES pH 7.4, 5 mM MgCl2, 1 mM CaCl2, 0.2% BSA; 30°C, 2 h; Ki calculated from IC50
APJ-Venus = APJ-Venus (UniProt P35414)
[6] = target: APJ-Renilla luciferase (Rluc) (UniProt P35414)
Apelin receptor (APJ) [7] = target: Apelin receptor (APJ) (UniProt P35414)

Q: Which “effect in PAH in rats (in words)” value [1] does the source give for Elabela here?
A: reduce the severity of cardiopulmonary remodeling and function in PAH in rats

Q: What about the “cardiac contractility (in words)” value (APJ [2]) of the same molecule?
A: increase cardiac contractility in an ERK1/2-dependent manner

Q: What about the “APJ signaling (in words)” value (APJ [3]; ref Peverelli et al., 2014) of the same molecule?
A: inhibit cyclic AMP (cAMP) production, activate the extracellular signal-regulated kinases (ERK1/2), and mobilize intracellular calcium through APJ internalization

Q: Which Ki (APJ (Apelin receptor)) does the source give for “LVQPRGSRNGPGPWQGGRRKFRRQRPRLSHKGPMPF [Apelin-36]” here?
A: 1.74 nM

Q: Which results are given for “Apelin-36-[L28A]: G protein biased APJ agonist (LVQPRGSRNGPGPWQGGRRKFRRQRPRASHKGPMPF; Apelin-36; UniProt Q9ULZ1 42-77, looked up, variant L28A)”?
A: binding to APJ (in words) (APJ [4]): nanomolar affinities; signaling bias (in words) (APJ [3]; ref Nyimanu et al., 2019): G protein biased APJ agonists

Q: With `COc1ccsc1CNCC[C@@]1(c2ccccn2)CCOC2(CCCC2)C1` [oliceridine] as the molecule, how does the “signaling bias at opioid receptor (in words)” value (μ opioid receptor (MOR)) read?
A: selective for G protein pathway, and the effect of β - arrestin recruitment is low

Q: For Apelin-17 (peptide), which IC50 (Apelin receptor (APJ) [5]) is on record?
A: 5.2 nM

Q: And the LogEC50 of the ligand-induced interaction of APJ with β-arrestin 1 (BRET between APJ-Venus and β-arrestin 1-Rluc, HEK293 cells) (APJ-Venus)?
A: -7.9

Q: What about the LogEC50 of the ligand-induced interaction of APJ with β-arrestin 2 (BRET between APJ-Venus and β-arrestin2-Rluc, HEK293 cells) (APJ-Venus) of the same molecule?
A: -8.33

Q: And the LogEC50 of the ligand-induced recruitment of GRK2 to APJ (BRET between APJ-Rluc and GRK2-GFP2, HEK293 cells) [6]?
A: -8.19

Q: What about the LogEC50 of the ligand-induced recruitment of GRK5 to APJ (BRET between APJ-Rluc and GRK5-GFP2, HEK293 cells) [6] of the same molecule?
A: -8.58

Q: What about the LogEC50 of the ligand-induced interaction between β-arrestin 1 and AP2 (BRET between β-arrestin 1-Rluc and β2-adaptin-EYFP in HEK293 cells co-transfected with APJ, 30 min) (Apelin receptor (APJ) [7]) of the same molecule?
A: -8.48

Q: What about the LogEC50 of the ligand-induced interaction between β-arrestin 2 and AP2 (BRET between β-arrestin 2-Rluc and β2-adaptin-EYFP in HEK293 cells co-transfected with APJ, 30 min) (Apelin receptor (APJ) [7]) of the same molecule?
A: -7.17
